Test results reported in paper PMC12621043, “Un-LOK-ing a New Approach for Conformational Selective Targeting of STK10 (LOK)” (ACS Medicinal Chemistry Letters, 2025).

How the values were obtained:
Experiment in all cases: DSF Tm panel
Format in all cases: binding
Conditions in all cases: 10 μM compound
STK38LA = biological target: T1, STK38LA (Homo sapiens, UniProt Q9Y2H1)
T1 construct: purchased in-house DSF kinase panel (SGC-style construct names; the trailing letter is the construct ID)

PDK4A = biological target: T2, PDK4A (Homo sapiens, UniProt Q16654)
T2 construct: purchased in-house DSF kinase panel (SGC-style construct names; the trailing letter is the construct ID)

TOPKA = biological target: T3, TOPKA (Homo sapiens, UniProt Q96KB5)
T3 construct: purchased in-house DSF kinase panel (SGC-style construct names; the trailing letter is the construct ID)
T3 sequence (Q96KB5 1-322): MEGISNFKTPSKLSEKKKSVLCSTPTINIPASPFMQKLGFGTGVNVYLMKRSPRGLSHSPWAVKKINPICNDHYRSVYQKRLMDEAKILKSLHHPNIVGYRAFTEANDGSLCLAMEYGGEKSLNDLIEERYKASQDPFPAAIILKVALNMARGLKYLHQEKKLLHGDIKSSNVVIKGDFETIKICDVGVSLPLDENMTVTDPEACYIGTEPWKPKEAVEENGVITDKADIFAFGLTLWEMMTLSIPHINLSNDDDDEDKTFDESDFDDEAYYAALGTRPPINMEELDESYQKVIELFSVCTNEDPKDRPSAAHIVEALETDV

MERTK = biological target: T4, MERTK (Homo sapiens, UniProt Q12866)
T4 construct: purchased in-house DSF kinase panel (SGC-style construct names; the trailing letter is the construct ID)
T4 sequence (Q12866 570-864): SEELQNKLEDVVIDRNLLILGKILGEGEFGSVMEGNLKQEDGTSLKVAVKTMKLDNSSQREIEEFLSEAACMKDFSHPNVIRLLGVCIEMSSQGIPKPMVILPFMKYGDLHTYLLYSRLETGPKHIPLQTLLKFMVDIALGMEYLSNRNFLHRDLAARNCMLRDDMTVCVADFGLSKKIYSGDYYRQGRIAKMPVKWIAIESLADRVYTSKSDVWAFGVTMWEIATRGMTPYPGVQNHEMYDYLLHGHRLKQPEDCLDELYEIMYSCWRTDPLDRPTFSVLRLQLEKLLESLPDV

PHKG2A = biological target: T5, PHKG2A (Homo sapiens, UniProt P15735)
T5 construct: purchased in-house DSF kinase panel (SGC-style construct names; the trailing letter is the construct ID)
T5 sequence (P15735 6-293): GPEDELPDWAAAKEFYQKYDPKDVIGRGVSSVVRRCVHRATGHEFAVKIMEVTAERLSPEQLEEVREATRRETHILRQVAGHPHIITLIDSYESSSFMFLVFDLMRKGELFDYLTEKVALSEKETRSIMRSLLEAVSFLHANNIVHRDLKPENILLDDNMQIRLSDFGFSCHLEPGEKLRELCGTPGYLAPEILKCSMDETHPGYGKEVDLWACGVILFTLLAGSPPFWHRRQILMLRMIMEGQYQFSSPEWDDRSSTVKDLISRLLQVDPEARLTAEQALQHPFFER

NQO2A = biological target: T6, NQO2A (Homo sapiens, UniProt P16083)
T6 construct: purchased in-house DSF kinase panel (SGC-style construct names; the trailing letter is the construct ID)
T6 sequence (P16083 1-231): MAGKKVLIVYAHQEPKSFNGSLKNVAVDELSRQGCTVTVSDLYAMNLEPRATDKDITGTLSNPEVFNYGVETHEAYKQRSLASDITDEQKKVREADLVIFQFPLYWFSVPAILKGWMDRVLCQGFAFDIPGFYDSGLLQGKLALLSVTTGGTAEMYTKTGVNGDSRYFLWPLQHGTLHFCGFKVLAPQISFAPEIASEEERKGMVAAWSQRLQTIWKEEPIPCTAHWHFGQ

TLK1A = biological target: T7, TLK1A (Homo sapiens, UniProt Q9UKI8)
T7 construct: purchased in-house DSF kinase panel (SGC-style construct names; the trailing letter is the construct ID)
T7 sequence (Q9UKI8 456-734): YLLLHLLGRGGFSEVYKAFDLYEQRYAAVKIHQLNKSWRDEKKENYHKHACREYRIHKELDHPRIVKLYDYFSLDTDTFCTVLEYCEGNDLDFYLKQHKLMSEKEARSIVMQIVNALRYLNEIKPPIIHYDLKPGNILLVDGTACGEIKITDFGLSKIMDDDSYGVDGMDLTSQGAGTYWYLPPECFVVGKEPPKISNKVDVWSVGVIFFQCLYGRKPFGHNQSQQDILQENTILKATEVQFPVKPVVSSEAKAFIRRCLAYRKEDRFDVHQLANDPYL

MAP2K7A = biological target: T8, MAP2K7A (Homo sapiens, UniProt O14733)
T8 construct: purchased in-house DSF kinase panel (SGC-style construct names; the trailing letter is the construct ID)
T8 sequence (O14733 120-400): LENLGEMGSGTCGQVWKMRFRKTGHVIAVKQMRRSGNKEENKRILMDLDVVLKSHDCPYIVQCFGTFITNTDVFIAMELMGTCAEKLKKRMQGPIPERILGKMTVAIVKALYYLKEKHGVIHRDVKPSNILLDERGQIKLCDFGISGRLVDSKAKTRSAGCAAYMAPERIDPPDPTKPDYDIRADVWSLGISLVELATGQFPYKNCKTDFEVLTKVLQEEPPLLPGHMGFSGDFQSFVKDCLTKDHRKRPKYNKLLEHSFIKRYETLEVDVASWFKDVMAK

HIPK2HSF = biological target: T9, HIPK2HSF (Homo sapiens, UniProt Q9H2X6)
T9 construct: purchased in-house DSF kinase panel (SGC-style construct names; the trailing letter is the construct ID)

MAPKAPK2A = biological target: T10, MAPKAPK2A (Homo sapiens, UniProt P49137)
T10 construct: purchased in-house DSF kinase panel (SGC-style construct names; the trailing letter is the construct ID)
T10 sequence (P49137 64-325): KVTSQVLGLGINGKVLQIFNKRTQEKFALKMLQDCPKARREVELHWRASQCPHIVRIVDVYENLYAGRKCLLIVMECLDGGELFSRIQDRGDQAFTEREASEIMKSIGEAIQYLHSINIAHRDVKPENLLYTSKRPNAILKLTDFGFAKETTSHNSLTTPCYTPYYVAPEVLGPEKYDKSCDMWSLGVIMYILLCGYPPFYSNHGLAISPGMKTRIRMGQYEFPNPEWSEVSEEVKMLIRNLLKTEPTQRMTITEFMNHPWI

T2 sequence (Q16654 whole entry): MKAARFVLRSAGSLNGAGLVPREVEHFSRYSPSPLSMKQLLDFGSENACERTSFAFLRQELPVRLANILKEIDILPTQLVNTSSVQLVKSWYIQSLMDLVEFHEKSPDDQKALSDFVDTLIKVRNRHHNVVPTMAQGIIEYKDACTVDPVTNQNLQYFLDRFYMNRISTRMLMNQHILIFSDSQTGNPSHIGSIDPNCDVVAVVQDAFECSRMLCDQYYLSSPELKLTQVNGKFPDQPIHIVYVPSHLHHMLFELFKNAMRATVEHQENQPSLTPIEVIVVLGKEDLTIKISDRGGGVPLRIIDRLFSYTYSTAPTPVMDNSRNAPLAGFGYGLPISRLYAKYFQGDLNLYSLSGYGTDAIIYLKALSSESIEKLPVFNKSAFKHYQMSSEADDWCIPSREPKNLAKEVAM
T9 sequence (Q9H2X6 199-527): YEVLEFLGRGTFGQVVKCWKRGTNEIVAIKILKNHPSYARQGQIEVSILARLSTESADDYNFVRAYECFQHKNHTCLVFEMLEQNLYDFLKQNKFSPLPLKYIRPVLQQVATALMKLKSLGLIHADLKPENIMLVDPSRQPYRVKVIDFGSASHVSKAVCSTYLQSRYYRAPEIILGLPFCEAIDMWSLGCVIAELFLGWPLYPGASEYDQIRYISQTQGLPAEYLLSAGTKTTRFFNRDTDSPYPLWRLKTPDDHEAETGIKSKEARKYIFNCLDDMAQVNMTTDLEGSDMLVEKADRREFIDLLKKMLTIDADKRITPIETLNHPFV
T1 sequence (Q9Y2H1 90-453): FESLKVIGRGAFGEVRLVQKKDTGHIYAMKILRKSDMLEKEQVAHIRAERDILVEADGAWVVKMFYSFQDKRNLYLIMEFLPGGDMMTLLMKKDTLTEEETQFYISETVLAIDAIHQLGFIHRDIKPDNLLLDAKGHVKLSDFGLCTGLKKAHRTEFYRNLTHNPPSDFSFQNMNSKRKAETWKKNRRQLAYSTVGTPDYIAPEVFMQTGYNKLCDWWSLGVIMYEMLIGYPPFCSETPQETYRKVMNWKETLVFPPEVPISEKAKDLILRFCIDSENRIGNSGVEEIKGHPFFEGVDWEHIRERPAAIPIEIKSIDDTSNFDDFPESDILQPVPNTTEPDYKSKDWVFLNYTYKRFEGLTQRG

Row | ΔTm at 10 µM (STK38LA) | ΔTm at 10 µM (PDK4A) | ΔTm at 10 µM (TOPKA) | ΔTm at 10 µM (MERTK) | ΔTm at 10 µM (PHKG2A) | ΔTm at 10 µM (NQO2A) | ΔTm at 10 µM (TLK1A) | ΔTm at 10 µM (MAP2K7A) | ΔTm at 10 µM (HIPK2HSF) | ΔTm at 10 µM (MAPKAPK2A) | Structure (SMILES)
1 | 0.6 °C | 0.8 °C | 0.2 °C | 2.5 °C | 1.2 °C | – | – | – | – | – | O=C(NCc1ccc(Cl)cc1)Nc1ccc2cc1OCCOCCNc1ccn3ncc-2c3n1 [compound 19]
2 | – | – | – | – | – | -1.5 °C | 0.9 °C | 0 °C | 0.5 °C | 0.1 °C | COc1cc(CNC(=O)Nc2ccc3cc2OCCOCCNc2ccn4ncc-3c4n2)ccc1F [compound 33]
3 | 0.7 °C | 0.8 °C | 0.4 °C | 1.6 °C | 0.6 °C | – | – | – | – | – | O=C(NCc1ccccc1Cl)Nc1ccc2cc1OCCOCCNc1ccn3ncc-2c3n1 [compound 17]
4 | – | – | – | – | – | -0.5 °C | 0.4 °C | 0.1 °C | 0.5 °C | 0.2 °C | COc1ccccc1CNC(=O)Nc1ccc2cc1OCCOCCNc1ccn3ncc-2c3n1 [compound 29]
5 | 1.2 °C | 1.1 °C | 0.6 °C | 2.7 °C | 0.9 °C | – | – | – | – | – | O=C(NCc1ccc(Cl)cc1F)Nc1ccc2cc1OCCOCCNc1ccn3ncc-2c3n1 [compound 21]
6 | 0.8 °C | -0.7 °C | 0.4 °C | 1.4 °C | 1.3 °C | – | – | – | – | – | O=C(NCc1ccccc1)Nc1ccc2cc1OCCOCCNc1ccn3ncc-2c3n1 [compound 16]
7 | – | – | – | – | – | -1.5 °C | 0.9 °C | 0.1 °C | 0.4 °C | 0.1 °C | Cc1ccc(F)cc1CNC(=O)Nc1ccc2cc1OCCOCCNc1ccn3ncc-2c3n1 [compound 26]
8 | – | – | – | – | – | -2.8 °C | 1.2 °C | 0.5 °C | 0.5 °C | 0.2 °C | COc1ccc(CNC(=O)Nc2ccc3cc2OCCOCCNc2ccn4ncc-3c4n2)cc1F [compound 32]
9 | – | – | – | – | – | -0.5 °C | 0.4 °C | 0 °C | 0.4 °C | 0.1 °C | C[C@H](NC(=O)Nc1ccc2cc1OCCOCCNc1ccn3ncc-2c3n1)c1ccccc1 [compound 34]
10 | – | – | – | – | – | -4.1 °C | 1.3 °C | 1 °C | 0.2 °C | 0.1 °C | O=C(NCc1ccccc1C(F)(F)F)Nc1ccc2cc1OCCOCCNc1ccn3ncc-2c3n1 [compound 27]
11 | 0.7 °C | 1.1 °C | 1.2 °C | 2.2 °C | 0.8 °C | – | – | – | – | – | O=C(NCc1ccc(Cl)cc1Cl)Nc1ccc2cc1OCCOCCNc1ccn3ncc-2c3n1 [compound 20]
12 | – | – | – | – | – | -0.6 °C | 1.1 °C | 0.5 °C | 0.5 °C | 0.2 °C | COc1ccc(CNC(=O)Nc2ccc3cc2OCCOCCNc2ccn4ncc-3c4n2)cc1 [compound 31]
13 | 0.4 °C | 0.5 °C | -0.4 °C | 0.4 °C | -0.1 °C | – | – | – | – | – | CN1CCN(C(=O)Nc2ccc3cc2OCCOCCNc2ccn4ncc-3c4n2)CC1 [compound 35]
14 | 1.1 °C | 1 °C | 0.5 °C | 1.8 °C | 0.4 °C | – | – | – | – | – | O=C(NCc1cccc(Cl)c1)Nc1ccc2cc1OCCOCCNc1ccn3ncc-2c3n1 [compound 18]
15 | – | – | – | – | – | -1.9 °C | 1 °C | 0.3 °C | 0.2 °C | 0.1 °C | Cc1cc(Br)ccc1CNC(=O)Nc1ccc2cc1OCCOCCNc1ccn3ncc-2c3n1 [compound 24]
16 | 1.7 °C | 0.6 °C | 1.5 °C | 3.1 °C | 0.5 °C | – | – | – | – | – | Cc1cc(Cl)ccc1CNC(=O)Nc1ccc2cc1OCCOCCNc1ccn3ncc-2c3n1 [compound 23]
17 | – | – | – | – | – | -2.7 °C | 1.6 °C | 1.1 °C | 0.6 °C | 0.4 °C | O=C(NCc1ccc(C(F)(F)F)cc1)Nc1ccc2cc1OCCOCCNc1ccn3ncc-2c3n1 [compound 28]
18 | – | – | – | – | – | -0.5 °C | 0.7 °C | 0.1 °C | 0.4 °C | 0.2 °C | COc1cccc(CNC(=O)Nc2ccc3cc2OCCOCCNc2ccn4ncc-3c4n2)c1 [compound 30]
